Test results from ChEMBL document CHEMBL1909294, “Translating clinical findings into knowledge in drug safety evaluation--drug induced liver injury prediction system (DILIps)” (PLoS Comput Biol, 2011).

Tests used:
Hepatotoxicity [1] = test system: Hepatotoxicity;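 for HepSE Combined Scores: combined hepatic side effect score as listed in the training data of the Drug Induced Liver Injury Prediction System (DILIps)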;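 for HepSE bilirubinemia: bilirubinemia hepatic side effect score drawn from the DILIps training data, a prediction system for drug-induced liver injury; call rule not given here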;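 for HepSE cirrhosis: cirrhosis hepatic side effect score taken from the DILIps (drug-induced liver injury prediction) training set; call rule not given here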;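 for HepSE elevated liver function tests: hepatic side effect score for raised liver function tests, as recorded in the DILIps training set used for predicting drug-induced liver injury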;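 for HepSE jaundice: Jaundice-related hepatic side-effect score drawn from the training data of the DILIps (drug-induced liver injury prediction system); call rule not given here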; for HepSE liver disease: call rule not given here;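 for HepSE liver fatty: hepatic side effect score for fatty liver, taken from the DILIps training set for predicting drug-induced liver injury; call rule not given here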
Hepatotoxicity [2] = test system: Hepatotoxicity; remark: listed apart in the source;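 for HepSE Combined Scores: combined hepatic side effect score as listed in the training data of the Drug Induced Liver Injury Prediction System (DILIps)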;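 for HepSE bilirubinemia: bilirubinemia hepatic side effect score drawn from the DILIps training data, a prediction system for drug-induced liver injury; call rule not given here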;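 for HepSE cirrhosis: cirrhosis hepatic side effect score taken from the DILIps (drug-induced liver injury prediction) training set; call rule not given here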;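 for HepSE elevated liver function tests: hepatic side effect score for raised liver function tests, as recorded in the DILIps training set used for predicting drug-induced liver injury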;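 for HepSE jaundice: Jaundice-related hepatic side-effect score drawn from the training data of the DILIps (drug-induced liver injury prediction system); call rule not given here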; for HepSE liver disease: call rule not given here;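 for HepSE liver fatty: hepatic side effect score for fatty liver, taken from the DILIps training set for predicting drug-induced liver injury; call rule not given here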
Hepatotoxicity [3] = test system: Hepatotoxicity; remark: listed apart in the source;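 for HepSE Combined Scores: combined hepatic side effect score as listed in the training data of the Drug Induced Liver Injury Prediction System (DILIps)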;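 for HepSE bilirubinemia: bilirubinemia hepatic side effect score drawn from the DILIps training data, a prediction system for drug-induced liver injury; call rule not given here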;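 for HepSE elevated liver function tests: hepatic side effect score for raised liver function tests, as recorded in the DILIps training set used for predicting drug-induced liver injury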;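 for HepSE jaundice: Jaundice-related hepatic side-effect score drawn from the training data of the DILIps (drug-induced liver injury prediction system); call rule not given here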; for HepSE liver disease: call rule not given here;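 for HepSE liver fatty: hepatic side effect score for fatty liver, taken from the DILIps training set for predicting drug-induced liver injury; call rule not given here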
Hepatotoxicity [4] = test system: Hepatotoxicity; remark: listed apart in the source;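 for HepSE Combined Scores: combined hepatic side effect score as listed in the training data of the Drug Induced Liver Injury Prediction System (DILIps)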;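 for HepSE bilirubinemia: bilirubinemia hepatic side effect score drawn from the DILIps training data, a prediction system for drug-induced liver injury; call rule not given here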;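 for HepSE elevated liver function tests: hepatic side effect score for raised liver function tests, as recorded in the DILIps training set used for predicting drug-induced liver injury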;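 for HepSE jaundice: Jaundice-related hepatic side-effect score drawn from the training data of the DILIps (drug-induced liver injury prediction system); call rule not given here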; for HepSE liver disease: call rule not given here;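 for HepSE liver fatty: hepatic side effect score for fatty liver, taken from the DILIps training set for predicting drug-induced liver injury; call rule not given here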
Hepatotoxicity [5] = test system: Hepatotoxicity; remark: listed apart in the source; for HepSE liver disease: call rule not given here
Hepatotoxicity [6] = test system: Hepatotoxicity; remark: listed apart in the source; for HepSE liver disease: call rule not given here
Hepatotoxicity [7] = test system: Hepatotoxicity; remark: listed apart in the source
Hepatotoxicity [8] = test system: Hepatotoxicity; remark: listed apart in the source
Hepatotoxicity [9] = test system: Hepatotoxicity; remark: listed apart in the source
Hepatotoxicity [10] = test system: Hepatotoxicity; remark: listed apart in the source
Hepatotoxicity [11] = test system: Hepatotoxicity; remark: listed apart in the source
Hepatotoxicity [12] = test system: Hepatotoxicity; remark: listed apart in the source
Hepatotoxicity [13] = test system: Hepatotoxicity; remark: listed apart in the source
Hepatotoxicity [14] = test system: Hepatotoxicity; remark: listed apart in the source

Row | Compound | HepSE_bilirubinemia (Hepatotoxicity [1]) | HepSE_jaundice (Hepatotoxicity [2]) | HepSE_liver fatty (Hepatotoxicity [3]) | HepSE_cholelithiasis (Hepatotoxicity [4]) | HepSE_elevated liver function tests (Hepatotoxicity [5]) | HepSE_hepatic necrosis (Hepatotoxicity [6]) | HepSE_liver disease (Hepatotoxicity [7]) | HepSE_Combined Scores (Hepatotoxicity [8]) | HepSE_hepatitis (Hepatotoxicity [9]) | HepSE_cirrhosis (Hepatotoxicity [10]) | HepSE_cholecystitis (Hepatotoxicity [11]) | HepSE_hepatomegaly (Hepatotoxicity [12]) | HepSE_hepatic failure (Hepatotoxicity [13]) | HepSE_liver function tests abnormal (Hepatotoxicity [14]) | also measured
1 | COc1ccc2c3c1O[C@H]1C[C@@H](O)C=C[C@@]31CCN(C)C2 [GALANTAMINE] | 0 | 0 | 0 | 0 | 0 | 0 | 0 | 1 | 1 | 0 | 0 | 0 | 0 | 0 | 
2 | NCCCC(=O)O [GAMMA-AMINOBUTYRIC ACID] | 0 | 0 | 0 | 0 | 0 | 0 | 0 | 0 | 0 | 0 | 0 | 0 | 0 | 0 | 
3 | Nc1nc(O)c2ncn(COC(CO)CO)c2n1 [GANCICLOVIR] | 0 | 1 | 0 | 1 | 0 | 0 | 0 | 4 | 1 | 0 | 0 | 0 | 1 | 0 | 
4 | COc1c(N2CCNC(C)C2)c(F)cc2c(=O)c(C(=O)O)cn(C3CC3)c12 (configuration not stated) [GATIFLOXACIN] | 0 | 0 | 0 | 0 | 0 | 0 | 0 | 1 | 1 | 0 | 0 | 0 | 0 | 0 | 
5 | COc1cc2ncnc(Nc3ccc(F)c(Cl)c3)c2cc1OCCCN1CCOCC1 [GEFITINIB] | 0 | 0 | 0 | 0 | 0 | 0 | 0 | 0 | 0 | 0 | 0 | 0 | 0 | 0 | 
6 | Nc1ccn([C@@H]2O[C@H](CO)[C@@H](O)C2(F)F)c(=O)n1 [GEMCITABINE] | 0 | 0 | 0 | 0 | 0 | 0 | 0 | 1 | 0 | 0 | 0 | 0 | 1 | 0 | 
7 | Cc1ccc(C)c(OCCCC(C)(C)C(=O)O)c1 [GEMFIBROZIL] | 0 | 1 | 0 | 1 | 0 | 0 | 0 | 4 | 0 | 0 | 1 | 0 | 0 | 1 | 
8 | CO/N=C1\CN(c2nc3c(cc2F)c(=O)c(C(=O)O)cn3C2CC2)CC1CN (configuration not stated) [GEMIFLOXACIN] | 1 | 1 | 0 | 0 | 0 | 0 | 0 | 3 | 1 | 0 | 0 | 0 | 0 | 0 | 
9 | Cc1ccc(S(=O)(=O)NC(=O)NN2CC3CCCC3C2)cc1 (configuration not stated) [GLICLAZIDE] | 0 | 1 | 0 | 0 | 0 | 0 | 0 | 4 | 1 | 0 | 0 | 1 | 1 | 0 | 
10 | CCC1=C(C)CN(C(=O)NCCc2ccc(S(=O)(=O)NC(=O)N[C@H]3CC[C@H](C)CC3)cc2)C1=O [GLIMEPIRIDE] | 0 | 1 | 0 | 0 | 0 | 0 | 0 | 3 | 1 | 0 | 0 | 0 | 1 | 0 | 
11 | NC(=O)CC[C@H](N)C(=O)O [GLUTAMINE] | 0 | 0 | 0 | 0 | 0 | 0 | 0 | 0 | 0 | 0 | 0 | 0 | 0 | 0 | 
12 | COc1ccc(Cl)cc1C(=O)NCCc1ccc(S(=O)(=O)NC(=O)NC2CCCCC2)cc1 [GLYBURIDE] | 0 | 1 | 0 | 0 | 0 | 0 | 0 | 3 | 1 | 0 | 0 | 0 | 1 | 0 | 
13 | NCC(=O)O [GLYCINE] |  |  |  |  |  |  |  |  |  |  |  |  |  |  | HepSE_bilirubinemia (Hepatotoxicity [1]; Liver): 0; HepSE_jaundice (Hepatotoxicity [2]; Liver): 0; HepSE_liver fatty (Hepatotoxicity [3]; Liver): 0; HepSE_cholelithiasis (Hepatotoxicity [4]; Liver): 0; HepSE_elevated liver function tests (Hepatotoxicity [5]; Liver): 0; HepSE_hepatic necrosis (Hepatotoxicity [6]; Liver): 0; HepSE_liver disease (Hepatotoxicity [7]; Liver): 0; HepSE_Combined Scores (Hepatotoxicity [8]; Liver): 0; HepSE_hepatitis (Hepatotoxicity [9]; Liver): 0; HepSE_cirrhosis (Hepatotoxicity [10]; Liver): 0; HepSE_cholecystitis (Hepatotoxicity [11]; Liver): 0; HepSE_hepatomegaly (Hepatotoxicity [12]; Liver): 0; HepSE_hepatic failure (Hepatotoxicity [13]; Liver): 0; HepSE_liver function tests abnormal (Hepatotoxicity [14]; Liver): 0
14 | CC(C)C[C@H](NC(=O)[C@@H](COC(C)(C)C)NC(=O)[C@H](Cc1ccc(O)cc1)NC(=O)[C@H](CO)NC(=O)[C@H](Cc1c[nH]c2ccccc12)NC(=O)[C@H](Cc1cnc[nH]1)NC(=O)[C@@H]1CCC(=O)N1)C(=O)N[C@@H](CCCNC(=N)N)C(=O)N1CCC[C@H]1C(=O)NNC(N)=O [GOSERELIN] | 0 | 0 | 0 | 0 | 0 | 0 | 0 | 0 | 0 | 0 | 0 | 0 | 0 | 0 | 
15 | CN1C2CCCC1CC(NC(=O)c1nn(C)c3ccccc13)C2 (configuration not stated) [GRANISETRON] | 1 | 1 | 0 | 0 | 0 | 0 | 0 | 3 | 0 | 0 | 0 | 0 | 0 | 1 | 
16 | COC1=CC(=O)C[C@@H](C)[C@]12Oc1c(Cl)c(OC)cc(OC)c1C2=O [GRISEOFULVIN] | 0 | 0 | 0 | 0 | 0 | 0 | 0 | 0 | 0 | 0 | 0 | 0 | 0 | 0 | 
17 | N=C(N)NCCN1CCCCCCC1 [GUANETHIDINE] | 0 | 0 | 0 | 0 | 0 | 0 | 0 | 0 | 0 | 0 | 0 | 0 | 0 | 0 | 
18 | N=C(N)NC(=O)Cc1c(Cl)cccc1Cl [GUANFACINE] | 0 | 0 | 0 | 0 | 0 | 0 | 0 | 1 | 0 | 0 | 0 | 0 | 0 | 1 | 
